Target: PI3Kδ (p110δ/p85α) (Homo sapiens (Human), UniProt O00329)
Experiment: PI3Kδ scintillation proximity assay (Example A3)
Assay type: biochemical
Settings: 20 μM ATP, 20 μM PIP2, 4 nM PI3Kδ; read-out: PI3Kδ SPA IC50
Procedure, shortened: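 Human PI3Kδ (p110δ/p85α, 4 nM) with 20 μM PIP2 and 20 μM ATP plus [γ-33P]ATP in 20 mM MOPS pH 6.7, 10 mM MgCl2, 5 mM DTT, 0.03% CHAPS, 0.5% DMSO, room temperature. Reaction stopped with EDTA/excess ATP; product captured on WGA SPA beads and counted. IC50 from percent control activity vs log inhibitor.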

Chain of PI3Kδ (p110δ/p85α) (O00329 whole entry): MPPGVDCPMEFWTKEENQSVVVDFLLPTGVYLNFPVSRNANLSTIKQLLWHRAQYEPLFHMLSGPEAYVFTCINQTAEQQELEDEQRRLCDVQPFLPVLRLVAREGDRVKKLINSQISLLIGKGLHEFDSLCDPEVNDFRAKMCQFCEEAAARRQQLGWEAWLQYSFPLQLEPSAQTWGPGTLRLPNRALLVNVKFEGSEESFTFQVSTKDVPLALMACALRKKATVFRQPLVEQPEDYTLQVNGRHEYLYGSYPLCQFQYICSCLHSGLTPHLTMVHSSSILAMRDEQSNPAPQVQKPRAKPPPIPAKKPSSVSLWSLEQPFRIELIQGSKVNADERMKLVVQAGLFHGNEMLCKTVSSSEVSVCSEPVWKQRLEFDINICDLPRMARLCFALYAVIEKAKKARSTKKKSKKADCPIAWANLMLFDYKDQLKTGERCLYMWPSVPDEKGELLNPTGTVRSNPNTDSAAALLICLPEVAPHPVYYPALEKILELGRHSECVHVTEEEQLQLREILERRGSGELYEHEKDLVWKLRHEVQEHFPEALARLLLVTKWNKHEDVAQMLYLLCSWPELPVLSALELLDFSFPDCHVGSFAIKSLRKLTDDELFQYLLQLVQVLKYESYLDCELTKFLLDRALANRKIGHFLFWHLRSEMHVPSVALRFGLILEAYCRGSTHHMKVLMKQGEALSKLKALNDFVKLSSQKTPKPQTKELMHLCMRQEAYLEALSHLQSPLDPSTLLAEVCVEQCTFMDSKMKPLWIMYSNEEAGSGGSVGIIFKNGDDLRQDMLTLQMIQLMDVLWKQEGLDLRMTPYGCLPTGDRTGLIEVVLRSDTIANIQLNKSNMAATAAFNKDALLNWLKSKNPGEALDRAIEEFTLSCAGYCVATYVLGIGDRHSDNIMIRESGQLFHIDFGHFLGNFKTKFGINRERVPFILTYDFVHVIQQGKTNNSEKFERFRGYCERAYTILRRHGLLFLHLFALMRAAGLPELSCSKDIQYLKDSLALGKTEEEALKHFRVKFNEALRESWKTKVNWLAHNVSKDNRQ
Chain of PI3Kδ (p110δ/p85α) (P27986 whole entry partner): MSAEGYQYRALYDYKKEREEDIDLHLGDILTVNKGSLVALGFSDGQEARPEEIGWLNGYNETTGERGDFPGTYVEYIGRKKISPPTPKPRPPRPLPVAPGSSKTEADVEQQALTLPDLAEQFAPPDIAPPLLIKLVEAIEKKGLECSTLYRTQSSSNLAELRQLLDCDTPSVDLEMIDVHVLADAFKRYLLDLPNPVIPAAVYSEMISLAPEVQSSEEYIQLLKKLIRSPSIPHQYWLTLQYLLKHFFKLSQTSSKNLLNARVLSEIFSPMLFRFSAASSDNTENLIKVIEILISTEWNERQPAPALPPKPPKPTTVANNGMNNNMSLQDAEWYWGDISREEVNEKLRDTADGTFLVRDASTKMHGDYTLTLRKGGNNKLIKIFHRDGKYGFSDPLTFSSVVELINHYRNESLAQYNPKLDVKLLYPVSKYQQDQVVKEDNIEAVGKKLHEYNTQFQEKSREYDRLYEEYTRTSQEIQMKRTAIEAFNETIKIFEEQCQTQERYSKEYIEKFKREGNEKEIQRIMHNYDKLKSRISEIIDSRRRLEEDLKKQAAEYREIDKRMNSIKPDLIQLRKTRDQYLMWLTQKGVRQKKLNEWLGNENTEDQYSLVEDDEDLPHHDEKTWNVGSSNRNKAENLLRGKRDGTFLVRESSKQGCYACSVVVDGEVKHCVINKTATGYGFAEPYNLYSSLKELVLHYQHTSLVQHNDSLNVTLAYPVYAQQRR

| SMILES | IC50 |
| --- | --- |
| CCOc1c(C(C)n2nc(C)c3c(N)ncnc32)cc(Cl)c(C#N)c1C1CN(CC(F)(F)F)C1 (single isomer, unassigned) [Example 233, 4-[1-(4-Amino-3-methyl-1H-pyrazolo[3,4-d]pyrimidin-1-yl)ethyl]-6-chloro-3-ethoxy-2-[1-(2,2,2-trifluoroethyl)azetidin-3-yl]benzonitrile] | ≤ 0.01 µM |
| CCOc1c(C(C)n2nc(C)c3c(N)ncnc32)cc(Cl)c(C#N)c1C1CN(S(=O)(=O)C(C)C)C1 (single isomer, unassigned) [Example 250, 4-[1-(4-Amino-3-methyl-1H-pyrazolo[3,4-d]pyrimidin-1-yl)ethyl]-6-chloro-3-ethoxy-2-[1-(isopropylsulfonyl)azetidin-3-yl]benzonitrile] | ≤ 0.01 µM |
| CCOc1c(C(C)n2nc(C)c3c(N)ncnc32)cc(Cl)c(C#N)c1C1CN(S(=O)(=O)C2CC2)C1 (single isomer, unassigned) [Example 251, 4-[1-(4-Amino-3-methyl-1H-pyrazolo[3,4-d]pyrimidin-1-yl)ethyl]-6-chloro-2-[1-(cyclopropylsulfonyl)azetidin-3-yl]-3-ethoxybenzonitrile] | ≤ 0.01 µM |
| CCN1CC(c2c(C#N)c(Cl)cc(C(C)n3nc(C)c4c(N)ncnc43)c2OC)C1 (single isomer, unassigned) [Example 263, 4-[1-(4-Amino-3-methyl-1H-pyrazolo[3,4-d]pyrimidin-1-yl)ethyl]-6-chloro-2-(1-ethylazetidin-3-yl)-3-methoxybenzonitrile] | ≤ 0.01 µM |
| COc1c(C(C)n2nc(C)c3c(N)ncnc32)cc(Cl)c(C#N)c1C1CN(CC(C)C)C1 (single isomer, unassigned) [Example 265, 4-[1-(4-Amino-3-methyl-1H-pyrazolo[3,4-d]pyrimidin-1-yl)ethyl]-6-chloro-2-(1-isobutylazetidin-3-yl)-3-methoxybenzonitrile] | ≤ 0.01 µM |
| COc1c(C(C)n2nc(C)c3c(N)ncnc32)cc(Cl)c(C#N)c1C1CN(CC2CC2)C1 (single isomer, unassigned) [Example 266, 4-[1-(4-Amino-3-methyl-1H-pyrazolo[3,4-d]pyrimidin-1-yl)ethyl]-6-chloro-2-[1-(cyclopropylmethyl)azetidin-3-yl]-3-methoxybenzonitrile] | ≤ 0.01 µM |
| COc1c(C(C)n2nc(C)c3c(N)ncnc32)cc(Cl)c(C#N)c1C1CN(C2CCC2)C1 (single isomer, unassigned) [Example 267, 4-[1-(4-Amino-3-methyl-1H-pyrazolo[3,4-d]pyrimidin-1-yl)ethyl]-6-chloro-2-(1-cyclobutylazetidin-3-yl)-3-methoxybenzonitrile] | ≤ 0.01 µM |
| COc1c(C(C)n2nc(C)c3c(N)ncnc32)cc(Cl)c(C#N)c1C1CN(CC2CCOCC2)C1 (single isomer, unassigned) [Example 280, 4-[1-(4-Amino-3-methyl-1H-pyrazolo[3,4-d]pyrimidin-1-yl)ethyl]-6-chloro-3-methoxy-2-[1-(tetrahydro-2H-pyran-4-ylmethyl)azetidin-3-yl]benzonitrile] | ≤ 0.01 µM |
| COc1c(C(C)n2nc(C)c3c(N)ncnc32)cc(Cl)c(C#N)c1C1CN(C(=O)C(C)C)C1 (single isomer, unassigned) [Example 283, 4-[1-(4-Amino-3-methyl-1H-pyrazolo[3,4-d]pyrimidin-1-yl)ethyl]-6-chloro-2-(1-isobutyrylazetidin-3-yl)-3-methoxybenzonitrile] | ≤ 0.01 µM |
| COc1c(C(C)n2nc(C)c3c(N)ncnc32)cc(Cl)c(C#N)c1C1CN(C(=O)C2CC2)C1 (single isomer, unassigned) [Example 284, 4-[1-(4-Amino-3-methyl-1H-pyrazolo[3,4-d]pyrimidin-1-yl)ethyl]-6-chloro-2-[1-(cyclopropylcarbonyl)azetidin-3-yl]-3-methoxybenzonitrile] | ≤ 0.01 µM |
| CCS(=O)(=O)N1CC(c2c(C#N)c(Cl)cc(C(C)n3nc(C)c4c(N)ncnc43)c2OC)C1 (single isomer, unassigned) [Example 286, 4-[1-(4-Amino-3-methyl-1H-pyrazolo[3,4-d]pyrimidin-1-yl)ethyl]-6-chloro-2-[1-(ethylsulfonyl)azetidin-3-yl]-3-methoxybenzonitrile] | ≤ 0.01 µM |
| COc1c(C(C)n2nc(C)c3c(N)ncnc32)cc(Cl)c(C#N)c1C1CN(S(=O)(=O)C2CC2)C1 (single isomer, unassigned) [Example 288, 4-[1-(4-Amino-3-methyl-1H-pyrazolo[3,4-d]pyrimidin-1-yl)ethyl]-6-chloro-2-[1-(cyclopropylsulfonyl)azetidin-3-yl]-3-methoxybenzonitrile] | ≤ 0.01 µM |

Continued, values first:

| IC50 | SMILES |
| --- | --- |
| ≤ 0.01 µM | CCOc1c(C(C)n2nc(C)c3c(N)ncnc32)cc(Cl)c(C#N)c1C1CN(C(C)(C)C(=O)NC)C1 (single isomer, unassigned) [Example 240, 2-(3-{3-[1-(4-Amino-3-methyl-1H-pyrazolo[3,4-d]pyrimidin-1-yl)ethyl]-5-chloro-6-cyano-2-ethoxyphenyl}azetidin-1-yl)-N,2-dimethylpropanamide] |
| ≤ 0.01 µM | CCOc1c(C(C)n2nc(C)c3c(N)ncnc32)cc(Cl)c(C#N)c1C1CN(C(C)=O)C1 (single isomer, unassigned) [Example 242, 2-(1-Acetylazetidin-3-yl)-4-[1-(4-amino-3-methyl-1H-pyrazolo[3,4-d]pyrimidin-1-yl)ethyl]-6-chloro-3-ethoxybenzonitrile] |
| ≤ 0.01 µM | CCOc1c(C(C)n2nc(C)c3c(N)ncnc32)cc(Cl)c(C#N)c1C1CN(C(=O)CC)C1 (single isomer, unassigned) [Example 243, 4-[1-(4-Amino-3-methyl-1H-pyrazolo[3,4-d]pyrimidin-1-yl)ethyl]-6-chloro-3-ethoxy-2-(1-propionylazetidin-3-yl)benzonitrile] |
| ≤ 0.01 µM | CCOc1c(C(C)n2nc(C)c3c(N)ncnc32)cc(Cl)c(C#N)c1C1CN(C(=O)C(C)C)C1 (single isomer, unassigned) [Example 244, 4-[1-(4-Amino-3-methyl-1H-pyrazolo[3,4-d]pyrimidin-1-yl)ethyl]-6-chloro-3-ethoxy-2-(1-isobutyrylazetidin-3-yl)benzonitrile] |
| ≤ 0.01 µM | CCOc1c(C(C)n2nc(C)c3c(N)ncnc32)cc(Cl)c(C#N)c1C1CN(C(=O)C(C)(C)C)C1 (single isomer, unassigned) [Example 245, 4-[1-(4-Amino-3-methyl-1H-pyrazolo[3,4-d]pyrimidin-1-yl)ethyl]-6-chloro-2-[1-(2,2-dimethylpropanoyl)azetidin-3-yl]-3-ethoxybenzonitrile] |
| ≤ 0.01 µM | CCOc1c(C(C)n2nc(C)c3c(N)ncnc32)cc(Cl)c(C#N)c1C1CN(C(=O)C2CC2)C1 (single isomer, unassigned) [Example 246, 4-[1-(4-Amino-3-methyl-1H-pyrazolo[3,4-d]pyrimidin-1-yl)ethyl]-6-chloro-2-[1-(cyclopropylcarbonyl)azetidin-3-yl]-3-ethoxybenzonitrile] |
| ≤ 0.01 µM | CCOc1c(C(C)n2nc(C)c3c(N)ncnc32)cc(Cl)c(C#N)c1C1CN(C(=O)OC)C1 (single isomer, unassigned) [Example 252, Methyl 3-{3-[1-(4-amino-3-methyl-1H-pyrazolo[3,4-d]pyrimidin-1-yl)ethyl]-5-chloro-6-cyano-2-ethoxyphenyl}azetidine-1-carboxylate] |
| ≤ 0.01 µM | CCOC(=O)N1CC(c2c(C#N)c(Cl)cc(C(C)n3nc(C)c4c(N)ncnc43)c2OCC)C1 (single isomer, unassigned) [Example 253, Ethyl 3-{3-[1-(4-amino-3-methyl-1H-pyrazolo[3,4-d]pyrimidin-1-yl)ethyl]-5-chloro-6-cyano-2-ethoxyphenyl}azetidine-1-carboxylate] |
| ≤ 0.01 µM | CCOc1c(C(C)n2nc(C)c3c(N)ncnc32)cc(Cl)c(C#N)c1C1CN(C(=O)NC(C)(C)C)C1 (single isomer, unassigned) [Example 255, 3-{3-[1-(4-Amino-3-methyl-1H-pyrazolo[3,4-d]pyrimidin-1-yl)ethyl]-5-chloro-6-cyano-2-ethoxyphenyl}-N-(tert-butyl)azetidine-1-carboxamide] |
| ≤ 0.01 µM | CCOc1c(C(C)n2nc(C)c3c(N)ncnc32)cc(Cl)c(C#N)c1C1CN(C(N)=O)C1 (single isomer, unassigned) [Example 256, 3-{3-[1-(4-Amino-3-methyl-1H-pyrazolo[3,4-d]pyrimidin-1-yl)ethyl]-5-chloro-6-cyano-2-ethoxyphenyl}azetidine-1-carboxamide] |
| ≤ 0.01 µM | CCNC(=O)N1CC(c2c(C#N)c(Cl)cc(C(C)n3nc(C)c4c(N)ncnc43)c2OCC)C1 (single isomer, unassigned) [Example 258, 3-{3-[1-(4-Amino-3-methyl-1H-pyrazolo[3,4-d]pyrimidin-1-yl)ethyl]-5-chloro-6-cyano-2-ethoxyphenyl}-N-ethylazetidine-1-carboxamide] |
| ≤ 0.01 µM | CCOc1c(C(C)n2nc(C)c3c(N)ncnc32)cc(Cl)c(C#N)c1C1CN(C(=O)N(C)C)C1 (single isomer, unassigned) [Example 259, 3-{3-[1-(4-Amino-3-methyl-1H-pyrazolo[3,4-d]pyrimidin-1-yl)ethyl]-5-chloro-6-cyano-2-ethoxyphenyl}-N,N-dimethylazetidine-1-carboxamide] |
| ≤ 0.01 µM | CCC(=O)N1CC(c2c(C#N)c(Cl)cc(C(C)n3nc(C)c4c(N)ncnc43)c2OC)C1 (single isomer, unassigned) [Example 282, 4-[1-(4-Amino-3-methyl-1H-pyrazolo[3,4-d]pyrimidin-1-yl)ethyl]-6-chloro-3-methoxy-2-(1-propionylazetidin-3-yl)benzonitrile] |
| ≤ 0.01 µM | CCOC(=O)N1CC(c2c(C#N)c(Cl)cc(C(C)n3nc(C)c4c(N)ncnc43)c2OC)C1 (single isomer, unassigned) [Example 290, Ethyl 3-{3-[1-(4-amino-3-methyl-1H-pyrazolo[3,4-d]pyrimidin-1-yl)ethyl]-5-chloro-6-cyano-2-methoxyphenyl}azetidine-1-carboxylate] |

— patent US9707233B2, “Heterocyclylamines as PI3K inhibitors” (Incyte Corporation, priority 2011, dated 2017)
